According to EP1935986B1, “Luminogenic and fluorogenic compounds and methods to detect molecules or conditions” (priority 2005, dated 2006):

Assays:
[1] = biological target: T1, QuantiLum Luciferase (Photinus pyralis, UniProt P08659); assay: Firefly luciferase reaction with luciferin derivatives: light emission over time (with or without ATP, EDTA, coenzyme A, DTT); type: biochemical; design: unit not given here
T1 construct: purchased Promega Corporation E170
Procedure: Gel and HPLC stop solution. Solid EDTA (free acid) was placed in a beaker with water and the pH of the solution adjusted to pH 7.0. The solution was then adjusted in volume to produce a solution 400 mM in EDTA.
Enzyme stop solution. A solution was prepared containing 20 mM Bis Tris, pH 6.5, 2 mM EDTA and 1mg/ml bovine serum albumin.
Reaction buffer (2X). A solution was made containing 100 mM HEPES buffer, pH 8.0; 10 mM MgCl2.
DTT stock. Solid DTT (dithiothreatol) was dissolved in water and then adjusted to pH 8.0 with solid sodium hydroxide. The solution was then adjusted in volume to produce a solution 1 M in DTT.
(§1) After producing the solutions in Table 37, the volume of all reactions was adjusted to 990 µl with water. […] While the light reading was being taken, a 10 µl sample of the reaction was diluted to 500 µl with enzyme stop solution (cooled on ice to 4°C) mixed and placed on ice and a second sample of 90 µl of reaction was added to 10 µl of Gel/HPLC stop and the tube placed at -20°C. A timer was started with the start of the first reaction and the start times of the remaining reactions was noted. At 15, 30, 45 and 60 minutes, each reaction was sampled as above and the light produced in the luminometer tubes was measured. At 7 and 22 minutes, the light produced in the luminometer tubes was read, but the reactions were not sampled.
as §1, with “40,” for “37,”

[2] = biological target: T1, QuantiLum Luciferase; assay: Residual active luciferase after reaction with luciferin derivatives (Steady Glo); type: biochemical, firefly; design: unit not given here
Procedure: as §1
After all samples were taken, 50 µl of the sample diluted into enzyme stop solution was mixed with 50 µl of Steady Glo Luciferase Reagent (Promega) and the light produced measured after incubating at room temperature for 10 minutes. This measured the active luciferase in the initial reaction.
as §1, with “40,” for “37,”

T1 sequence (P08659 whole entry): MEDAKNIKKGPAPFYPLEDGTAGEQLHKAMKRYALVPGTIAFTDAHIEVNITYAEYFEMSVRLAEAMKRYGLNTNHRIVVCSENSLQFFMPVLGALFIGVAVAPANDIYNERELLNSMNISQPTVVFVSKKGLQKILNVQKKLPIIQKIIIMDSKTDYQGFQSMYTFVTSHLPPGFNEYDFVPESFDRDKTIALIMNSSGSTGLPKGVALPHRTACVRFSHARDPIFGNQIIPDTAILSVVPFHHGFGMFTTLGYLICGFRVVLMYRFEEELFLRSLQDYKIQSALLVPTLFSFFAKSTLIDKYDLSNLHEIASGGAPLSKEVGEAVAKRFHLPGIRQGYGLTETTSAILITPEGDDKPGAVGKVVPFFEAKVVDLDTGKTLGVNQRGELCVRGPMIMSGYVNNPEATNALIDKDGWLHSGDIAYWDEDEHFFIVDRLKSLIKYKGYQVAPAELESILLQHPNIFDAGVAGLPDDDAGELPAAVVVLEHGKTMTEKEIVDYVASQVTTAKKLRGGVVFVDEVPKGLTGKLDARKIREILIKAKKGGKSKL

O=C(O)[C@H]1CSC(c2nc3ccc(OCc4ccccc4)cc3s2)=N1 [Luc'in BE]
Light reading at time ([1]; +Co A, 7 min): 11.92
Light reading at time ([1]; +Co A, 22 min): 9.941
Light reading at time ([1]; +CoA, 0 min): 139.5
Light reading at time ([1]; +CoA, 15 min): 10.99
Light reading at time ([1]; +CoA, 30 min): 7.379
Light reading at time ([1]; +CoA, 45 min): 7.284
Light reading at time ([1]; +CoA, 60 min): 6.433
Light reading at time ([1]; +DTT, 0 min): 948
Light reading at time ([1]; +DTT, 7 min): 532.8
Light reading at time ([1]; +DTT, 15 min): 417
Light reading at time ([1]; +DTT, 22 min): 369.5
Light reading at time ([1]; +DTT, 30 min): 331.6
Light reading at time ([1]; +DTT, 45 min): 273.5
Light reading at time ([1]; +DTT, 60 min): 226.9
Light reading at time ([1]; No addition, 0 min): 135.2
Light reading at time ([1]; No addition, 7 min): 22.61
Light reading at time ([1]; No addition, 15 min): 12.79
Light reading at time ([1]; No addition, 22 min): 9.256
Light reading at time ([1]; No addition, 30 min): 6.928
Light reading at time ([1]; No addition, 45 min): 4.879
Light reading at time ([1]; No addition, 60 min): 3.311
Light reading at time ([1]; w/o ATP, 0 min): 0.015
Light reading at time ([1]; w/o ATP, 7 min): 0
Light reading at time ([1]; w/o ATP, 15 min): 0.008
Light reading at time ([1]; w/o ATP, 22 min): 0.005
Light reading at time ([1]; w/o ATP, 30 min): 0
Light reading at time ([1]; w/o ATP, 45 min): 0
Light reading at time ([1]; w/o ATP, 60 min): 0.01
Light reading from residual active enzyme at time ([2]; +CoA, 0 min): 186.7
Light reading from residual active enzyme at time ([2]; +CoA, 15 min): 179.6
Light reading from residual active enzyme at time ([2]; +CoA, 30 min): 179.4
Light reading from residual active enzyme at time ([2]; +CoA, 45 min): 157.9
Light reading from residual active enzyme at time ([2]; +CoA, 60 min): 161.8
Light reading from residual active enzyme at time ([2]; No addition, 0 min): 129.7
Light reading from residual active enzyme at time ([2]; No addition, 15 min): 69.9
Light reading from residual active enzyme at time ([2]; No addition, 30 min): 47.31
Light reading from residual active enzyme at time ([2]; No addition, 45 min): 37.94
Light reading from residual active enzyme at time ([2]; No addition, 60 min): 29.08
Light reading from residual active enzyme at time ([2]; w/o ATP, 0 min): 168.3
Light reading from residual active enzyme at time ([2]; w/o ATP, 15 min): 174.1
Light reading from residual active enzyme at time ([2]; w/o ATP, 30 min): 171.7
Light reading from residual active enzyme at time ([2]; w/o ATP, 45 min): 172.9
Light reading from residual active enzyme at time ([2]; w/o ATP, 60 min): 164
